# Test results: patent publication EP4420661B1, “SMALL MOLECULES TARGETING GLYCOPROTEIN VI AS ANTIPLATELET AGENTS FOR USE IN THE PREVENTION AND/OR TREATMENT OF THROMBOSIS AND ASSOCIATED PATHOLOGIES” (Universidade de Santiago de Compostela, priority 2023, dated 2024)
# Assays:
# [1] = metabolic stability, human microsomes; format: in vitro ADME
# Method: Microsomes from Tebu-bio Xenotech were employed in the assay, having a content of 20 mg/ml of protein. The following quantities were added to each well of a 96-well microplate. Table 6: Metabolic stability assay.
# Plates were incubated at 37°C and 75 µL samples were taken at 0, 10, 20, 40 and 60 minutes.
# Samples were transferred to a microplate and 75 µl Acetonitrile + IS(Rolipram) were added for inactivating the microsomes, and 30 µl of H2O with 0.5% formic acid for improving the chromatographic conditions and kept at 4°C. When all the samples were taken the plate was centrifuged at […] for 30 min at 15°C. Stationary phase: ACQUITY BEH C18 1.7µm 2.1x50mm (Waters) Mobile phase: A: 0.1% formic; B: acetonitrile+0.1% formic acid Gradient: Table 6: UPLC gradient / Metabolic stability assay
# Metabolic stability was calculated from the logarithm of the remaining compound at each of the times evaluated.
# CYP3A4 = target: T1, CYP3A4 (Homo sapiens, UniProt P08684); assay: CYP inhibition, liver microsomes, substrate cocktail; format: in vitro ADME; settings: for inhibition at 25 min, 10 µM: human, liver microsomes
# T1 construct: 0.5 mg protein/mL of liver microsomes (HLM Xenotech); tissue Xenotech; host or cells: liver microsomes
# T1 sequence (P08684 whole entry): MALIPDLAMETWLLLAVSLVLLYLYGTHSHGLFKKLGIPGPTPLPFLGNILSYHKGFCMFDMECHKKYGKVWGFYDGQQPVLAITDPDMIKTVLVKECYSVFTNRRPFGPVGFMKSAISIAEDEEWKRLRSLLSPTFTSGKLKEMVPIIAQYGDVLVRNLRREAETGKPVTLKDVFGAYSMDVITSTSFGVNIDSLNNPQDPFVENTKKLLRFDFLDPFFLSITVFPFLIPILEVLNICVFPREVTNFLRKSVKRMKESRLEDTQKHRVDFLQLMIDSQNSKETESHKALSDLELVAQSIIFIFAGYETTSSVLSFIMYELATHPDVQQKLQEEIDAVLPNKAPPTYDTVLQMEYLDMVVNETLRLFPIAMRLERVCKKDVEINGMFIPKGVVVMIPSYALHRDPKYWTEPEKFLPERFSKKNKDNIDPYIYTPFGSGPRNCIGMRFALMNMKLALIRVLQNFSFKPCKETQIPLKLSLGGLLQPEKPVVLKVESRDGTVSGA
# Method: (§1) Cytochrome P450 (CYP) are a family of enzymes which play a major role in the metabolism of drugs. Assessment of the potential of a compound to inhibit a specific cytochrome P450 enzyme is important as co-administration of compounds may result in one or both inhibiting the other's metabolism.
# (§2) All the incubations were performed in 250 µL reaction medium containing sodium/potassium phosphate buffer 50mM, pH 7.4, 3mM MgCl2, an NADPH regeneration system 1mM NADP, 10mM glucose 6-phosphate, and 1 U/mL glucose 6-phosphate dehydrogenase, 0.5 mg protein/mL of liver microsomes (HLM Xenotech), and a substrate cocktail composed of phenacetin for CYP1A2, diclofenac for CYP2C9, S-mephenytoin for CYP2C19, bufuralol for CYP2D6, midazolam for CYP3A4, and testosterone for CYP3A4. Final concentrations of substrate in the reaction medium were: 10 µM phenacetin, 10 µM diclofenac, 5 µM bufuralol, 100µM S-Mephenytoin, 5 µM midazolam, and 50 µM testosterone. Following incubation at 37°C for 25 min, the reactions were terminated by the addition of ice-cold acetonitrile and the plate was centrifuged at 4000 g for 60 min at 4°C.
# (§3) Supernatant was taken and analyzed by UPLC/MS/MS for sample quantification The chromatographic equipment employed was an UPLC QSM Waters Acquity. Stationary phase: Reverse phase Acquity UPLC® BEHC18 1,7 µm (2.1 mm x 100 mm) (Waters) Mobile phase: 0.1% Formic acid water/0.1% formic acid in acetonitrile. Flow: 0.8 ml/min. Gradient: Table 10: UPLC gradient / CYP inhibition assay
# CYP2C19 = target: T2, CYP2C19 (Homo sapiens, UniProt P33261); assay: as above; format: in vitro ADME
# T2 construct: 0.5 mg protein/mL of liver microsomes (HLM Xenotech); tissue Xenotech; host or cells: liver microsomes
# T2 sequence (P33261 whole entry): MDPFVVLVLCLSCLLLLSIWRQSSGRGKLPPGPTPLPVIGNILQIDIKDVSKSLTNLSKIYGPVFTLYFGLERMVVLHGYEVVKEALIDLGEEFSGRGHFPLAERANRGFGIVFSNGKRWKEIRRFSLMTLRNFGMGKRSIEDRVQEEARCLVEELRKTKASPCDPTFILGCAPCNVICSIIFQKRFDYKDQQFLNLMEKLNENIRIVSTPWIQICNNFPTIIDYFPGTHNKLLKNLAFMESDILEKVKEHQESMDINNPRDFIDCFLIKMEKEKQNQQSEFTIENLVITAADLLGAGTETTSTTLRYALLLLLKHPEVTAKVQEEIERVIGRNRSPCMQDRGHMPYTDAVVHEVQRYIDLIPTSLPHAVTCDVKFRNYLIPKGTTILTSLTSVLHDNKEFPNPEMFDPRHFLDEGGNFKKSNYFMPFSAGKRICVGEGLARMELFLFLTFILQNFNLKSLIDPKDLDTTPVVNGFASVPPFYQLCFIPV
# Method: as §1, §2, §3
# CYP2C9 = target: T3, CYP2C9 (Homo sapiens, UniProt P11712); assay: as above; format: in vitro ADME
# T3 construct: 0.5 mg protein/mL of liver microsomes (HLM Xenotech); tissue Xenotech; host or cells: liver microsomes
# T3 sequence (P11712 whole entry): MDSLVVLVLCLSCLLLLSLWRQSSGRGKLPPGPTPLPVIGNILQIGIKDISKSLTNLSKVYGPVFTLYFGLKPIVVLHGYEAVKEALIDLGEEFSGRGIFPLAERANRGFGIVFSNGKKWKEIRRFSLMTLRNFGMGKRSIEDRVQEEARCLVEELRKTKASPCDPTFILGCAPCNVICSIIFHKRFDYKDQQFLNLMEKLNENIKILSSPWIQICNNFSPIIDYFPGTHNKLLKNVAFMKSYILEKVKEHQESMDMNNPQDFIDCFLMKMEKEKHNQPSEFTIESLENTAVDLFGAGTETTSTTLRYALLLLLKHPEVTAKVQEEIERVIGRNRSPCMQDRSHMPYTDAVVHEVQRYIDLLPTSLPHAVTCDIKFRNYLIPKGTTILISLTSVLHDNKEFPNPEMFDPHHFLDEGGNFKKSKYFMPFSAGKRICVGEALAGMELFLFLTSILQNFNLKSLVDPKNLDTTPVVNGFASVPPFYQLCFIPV
# Method: as §1, §2, §3
# CYP2D6 = target: T4, CYP2D6 (Homo sapiens, UniProt P10635); assay: as above; format: in vitro ADME
# T4 construct: 0.5 mg protein/mL of liver microsomes (HLM Xenotech); tissue Xenotech; host or cells: liver microsomes
# T4 sequence (P10635 whole entry): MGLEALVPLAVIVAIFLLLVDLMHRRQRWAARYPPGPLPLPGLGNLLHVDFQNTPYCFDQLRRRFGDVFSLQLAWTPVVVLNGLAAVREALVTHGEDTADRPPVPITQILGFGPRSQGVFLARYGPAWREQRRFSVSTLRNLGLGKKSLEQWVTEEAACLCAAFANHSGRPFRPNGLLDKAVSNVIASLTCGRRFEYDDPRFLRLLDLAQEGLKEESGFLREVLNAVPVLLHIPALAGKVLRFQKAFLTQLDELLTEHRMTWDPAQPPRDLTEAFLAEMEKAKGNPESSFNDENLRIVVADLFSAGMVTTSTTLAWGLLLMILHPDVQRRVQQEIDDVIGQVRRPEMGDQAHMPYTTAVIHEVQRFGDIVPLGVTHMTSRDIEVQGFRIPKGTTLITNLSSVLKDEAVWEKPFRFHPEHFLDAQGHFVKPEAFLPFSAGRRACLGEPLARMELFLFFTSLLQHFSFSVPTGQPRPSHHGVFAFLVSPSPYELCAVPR
# Method: as §1, §2, §3
# CYP1A2 = target: T5, CYP1A2 (Homo sapiens, UniProt P05177); assay: as above; format: in vitro ADME
# T5 construct: 0.5 mg protein/mL of liver microsomes (HLM Xenotech); tissue Xenotech; host or cells: liver microsomes
# T5 sequence (P05177 1-516): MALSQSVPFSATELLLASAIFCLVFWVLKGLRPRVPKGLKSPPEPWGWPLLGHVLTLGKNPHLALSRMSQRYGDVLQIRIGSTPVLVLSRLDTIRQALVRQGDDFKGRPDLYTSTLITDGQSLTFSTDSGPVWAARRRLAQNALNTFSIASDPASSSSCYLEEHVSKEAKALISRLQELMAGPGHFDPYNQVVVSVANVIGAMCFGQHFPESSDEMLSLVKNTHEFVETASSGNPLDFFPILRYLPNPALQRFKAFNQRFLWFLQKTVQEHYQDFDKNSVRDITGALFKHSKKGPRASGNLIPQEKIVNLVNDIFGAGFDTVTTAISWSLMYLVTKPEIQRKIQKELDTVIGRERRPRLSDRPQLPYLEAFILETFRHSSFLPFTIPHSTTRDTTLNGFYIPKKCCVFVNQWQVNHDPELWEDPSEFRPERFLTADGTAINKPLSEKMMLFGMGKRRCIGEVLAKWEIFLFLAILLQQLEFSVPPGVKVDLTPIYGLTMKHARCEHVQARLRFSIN
# Method: as §1, §2, §3
# human platelets = assay: intracellular Ca+2 mobilization assay, CRP-activated washed platelets (FLIPR Calcium 4); format: cell-based; settings: Platelet, calcium mobilization in human platelets, read-out: % Inhibition of CRP effect at 1µM, Mean
# Method: An intracellular Ca^+2 mobilization assay was used to test the activity of the ligands in platelets. This assay measures the changes in calcium in real time by fluorophore dye Calcium 4, providing a useful way to characterize platelet activation by GPVI signaling [Barrachina et al. (2021)].
# Washed platelets (5x10E6) were incubated with FLIPR Calcium 4 reagent (Molecular Devices LLC, San Jose, CA, USA) in a 384-well transparent bottom plate (Greiner Bio-One International GmbH, Kremsmünster, Austria) and supplemented with Probenecid (Invitrogen™, Carlsbad, CA, USA) 0.07% for 1 h at 37 °C. Platelets were co-incubated for 10 min with the tested compounds and inhibitors of secondary mediators (2 U/mL apyrase and 10 microM indomethacin (Sigma-Aldrich, Saint Louis, MO, USA)) under nonaggregating conditions (9 microM eptifibatide (Cayman Chemicals, Ann Arbor, MI, USA)). Then, the GPVI-specific agonist Collagen-Related Peptide (CRP) was added to the platelet suspension at different doses. Both potential GPVI inhibitors and CRP were automatically dispensed by FDSS7000EX Functional Drug Screening System (Hamamatsu Photonics, Hamamatsu, Japan). Intracellular Ca^2+ mobilization was assessed by measuring fluorescence changes ([…] wavelengths) in real time for 15 min after the addition of the agonist. 100% was expressed as maximal Ca^2+ release in platelets treated with the agonist CRP. To determine IC50, compounds were tested at 9 different concentrations in duplicates starting from 10 uM and performing 1:3 serial dilutions. The analysis of the data was performed with GraphPad Prism® software (version 6.0e, March 2014) (GraphPad Software, San Diego, CA, USA) by carrying out a nonlinear regression fit for log(inhibitor) vs. relative CRP activity using a Hill slope of -1, and top and bottom constraints of 100 and 0, respectively.
smiles,measurement,setting,value
O=C(Cc1ccc2c(c1)OCCO2)Nc1nc(-c2ccc3c(c2)CCC(=O)N3)cs1 [Compound (If)],half-life,[1],46.9 min
same,microsomal CLint,[1],10.1 µL/min/mg
same,% remanent (*),[1]; (*) sampling time 60 min,41.21%
same,IC50,CYP3A4; CYP3A4 (Midazolam),> 10 µM
same,IC50,"CYP3A4; CYP3A4 (Testosterone), 25 min",> 10 µM
same,"inhibition at 25 min, 10 µM","CYP3A4; pH 7.4, CYP3A4 (Midazolam)",-9.4%
same,"inhibition at 25 min, 10 µM","CYP3A4; pH 7.4, CYP3A4 (Testosterone)",-12.8%
same,IC50,"CYP2C19; CYP2C19, substrate S-mephenytoin",> 10 µM
same,"inhibition at 25 min, 10 µM","CYP2C19; human, liver microsomes, pH 7.4, CYP2C19, 10µM, substrate S-mephenytoin",-18.8%
same,IC50,"CYP2C9; CYP2C9, substrate diclofenac",> 10 µM
same,"inhibition at 25 min, 10 µM","CYP2C9; human, liver microsomes, pH 7.4, CYP2C9, 10µM, substrate diclofenac",-0.7%
same,IC50,"CYP2D6; CYP2D6, substrate bufuralol",> 10 µM
same,"inhibition at 25 min, 10 µM","CYP2D6; human, liver microsomes, pH 7.4, CYP2D6, 10µM, substrate bufuralol",-2.9%
same,IC50,"CYP1A2; CYP1A2, substrate phenacetin",> 10 µM
same,"inhibition at 25 min, 10 µM","CYP1A2; human, liver microsomes, pH 7.4, CYP1A2, 10µM, substrate phenacetin",-5.3%
same,inhibition at 1 µM,human platelets,31%
